# From patent US20240165281A1, “DUAL MODE RADIOTRACER AND THERAPEUTICS” (Technische Universität München, priority 2021, published 2024)
# Experiments:
# [1] = target: T1, Human Serum Albumin (HSA) (Homo sapiens, UniProt P02768); test: Human serum albumin (HSA) binding by high performance affinity chromatography (HPAC); type: in vitro ADME; conditions: Chiralpak HSA column
# T1 construct: purchased Daicel H13H-2433
# Procedure: Determination of Human Serum Albumin (HSA) Binding by High Performance Affinity Chromatography (HPAC)
# HSA binding of the PSMA-addressing ligands was determined according to a previously published procedure via HPLC (Valko, K.; Nunhuck, S.; Bevan, C.; Abraham, M. H.; Reynolds, D. P. Journal of pharmaceutical sciences 2003, 92, 2236-2248). A Chiralpak HSA column (50×3 mm, 5 μm, H13H-2433, Daicel, Tokyo, Japan) was used at a constant flow rate of 0.5 mL/min at rt. Mobile phase A was a freshly prepared 50 mM aqueous solution of NH4OAc (pH 6.9) and mobile phase B was isopropanol (HPLC grade, VWR). The applied gradient for all experiments was 100% A (0 to 3 min), followed by 80% A (3 to 40 min). Prior to the experiment, the column was calibrated using nine reference substances with a HSA binding, known from literature, in the range of 13 to 99% (Valko, K.; Nunhuck, S.; Bevan, C.; Abraham, M. H.; Reynolds, D. P. Journal of pharmaceutical sciences 2003, 92, 2236-2248; Yamazaki, K.; Kanaoka, M. Journal of Pharmaceutical sciences 2004, 93, 1480-1494). All substances, including the examined PSMA ligands, were dissolved in a 1:1 mixture (v/v) of isopropanol and a 50 mM aqueous solution of NH4OAc (pH6.9) with a final concentration of 0.5 mg/mL. Non-linear regression was established with the OriginPro 2016G software (Northampton, United States) (FIG. 8).
# [2] = test system: LNCaP tumor-bearing male CB-17 SCID mice; test: Biodistribution studies 24 h p.i.
# Procedure: Approximately 3-7 MBq (0.1-0.2 nmol) of the radioactive-labelled PSMA inhibitors were injected into the tail vein of LNCaP tumor-bearing male CB-17 SCID mice and sacrificed after 24 h post injection. Selected organs were removed, weighted and measured in a γ-counter. Results are all decay corrected and given in % injected dose per gram of tissue (% iD/g). Tumor-to-organ ratios are calculated from animals' individual ratios and are given as mean±standard deviation.
# PSMA = target: T2, PSMA (Homo sapiens, UniProt Q04609); test: PSMA affinity (IC50), competition with [125I]I-BA-KuE on LNCaP cells; type: binding; conditions: natLu complex, on ice 60 min, read-out: IC50
# T2 construct: PSMA-positive LNCAP cells (300265; Cell Lines Service, Eppelheim, Germany); host or cells: LNCaP cells
# T2 sequence (Q04609 whole entry): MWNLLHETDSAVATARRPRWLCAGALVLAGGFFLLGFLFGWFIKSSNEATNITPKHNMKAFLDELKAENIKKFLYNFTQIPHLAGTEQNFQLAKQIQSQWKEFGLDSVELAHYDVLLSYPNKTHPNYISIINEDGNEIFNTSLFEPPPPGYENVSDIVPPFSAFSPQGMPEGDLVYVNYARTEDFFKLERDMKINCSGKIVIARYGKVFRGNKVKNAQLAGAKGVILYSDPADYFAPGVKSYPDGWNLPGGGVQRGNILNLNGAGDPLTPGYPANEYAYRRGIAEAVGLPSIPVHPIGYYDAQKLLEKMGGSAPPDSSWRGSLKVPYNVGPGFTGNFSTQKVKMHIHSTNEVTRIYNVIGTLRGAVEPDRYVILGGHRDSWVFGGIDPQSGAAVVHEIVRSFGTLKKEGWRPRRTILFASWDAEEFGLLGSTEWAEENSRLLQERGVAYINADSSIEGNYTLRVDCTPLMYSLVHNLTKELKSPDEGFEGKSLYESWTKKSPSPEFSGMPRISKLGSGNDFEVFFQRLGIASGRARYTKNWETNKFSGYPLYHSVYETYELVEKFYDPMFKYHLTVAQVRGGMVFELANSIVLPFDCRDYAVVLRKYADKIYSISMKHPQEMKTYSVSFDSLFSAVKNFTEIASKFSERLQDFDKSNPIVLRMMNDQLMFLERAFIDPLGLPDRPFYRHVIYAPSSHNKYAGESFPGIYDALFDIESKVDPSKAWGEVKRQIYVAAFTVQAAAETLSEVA
# Procedure: A mixture of trypsin and EDTA (0.05%, 0.02%) in PBS (Biochrom) was used in order to harvest cells. Cells were counted with a Neubauer hemocytometer (Paul Marienfeld, Lauda-Königshofen, Germany).
# Affinity Determinations (IC50)
# In the case of metal-complexed ligands, the crude reaction mixture was diluted analogously, without further purification. Cells were harvested 24±2 hours prior to the experiment and seeded in 24-well plates (1.5×10^5 cells in 1 mL/well). […] The media of both steps were combined in one fraction and represent the amount of free radioligand. Afterwards, the cells were lysed with 250 μL of 1 M aqueous NaOH for at least 10 min. After a washing step (250 μL of 1 M NaOH), both fractions, representing the amount of bound ligand, were united. Quantification of all collected fractions was accomplished in a γ-counter. PSMA-affinity determinations were carried out at least three times per ligand.
# [3] = mean, listed as [^177Lu]Lu-2C013
# T1 sequence (P02768 25-609): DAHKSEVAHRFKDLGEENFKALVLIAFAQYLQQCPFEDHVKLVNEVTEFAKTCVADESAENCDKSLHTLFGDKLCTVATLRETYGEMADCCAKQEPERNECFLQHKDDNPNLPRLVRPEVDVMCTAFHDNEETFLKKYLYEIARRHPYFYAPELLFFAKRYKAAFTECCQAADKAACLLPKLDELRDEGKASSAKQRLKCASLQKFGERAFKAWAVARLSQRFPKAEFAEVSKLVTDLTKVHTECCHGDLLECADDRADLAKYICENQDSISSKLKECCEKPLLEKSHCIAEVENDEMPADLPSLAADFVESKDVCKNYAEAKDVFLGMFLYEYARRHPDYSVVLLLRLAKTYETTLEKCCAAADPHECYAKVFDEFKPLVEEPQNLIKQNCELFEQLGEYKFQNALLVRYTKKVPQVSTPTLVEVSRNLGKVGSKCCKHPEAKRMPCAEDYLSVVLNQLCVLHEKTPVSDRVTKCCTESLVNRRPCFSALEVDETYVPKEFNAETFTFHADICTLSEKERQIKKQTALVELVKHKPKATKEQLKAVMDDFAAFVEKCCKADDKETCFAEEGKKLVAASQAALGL
compound,measurement,setting,value
CC(C)(C)[Si](F)(c1ccc(C(=O)NC[C@@H](NC(=O)CN2CCN(CC(=O)O)CCN(CC(=O)O)CCN(CC(=O)O)CC2)C(=O)N[C@H](CO)C(=O)NCCC(=O)NCCC(=O)NCCC[C@@H](NC(=O)CC[C@H](NC(=O)N[C@@H](CCC(=O)O)C(=O)O)C(=O)O)C(=O)O)cc1)C(C)(C)C [Compound 2C013],HSA (HPAC),[1],88.6%
same,Kidneys (24 h),[2]; Table 1,0.95 ± 0.42 % iD/g
same,Tumor (24 h),[2]; Table 1,7.59 ± 1.23 % iD/g
same,In vivo biodistribution (24 h p.i.) blood,[2]; Table 6,0.0013 ± 0.0007 % iA/g
same,In vivo biodistribution (24 h p.i.) kidney,[2]; Table 6,0.95 ± 0.42 % iA/g
same,In vivo biodistribution (24 h p.i.) tumor,[2]; Table 6,7.59 ± 1.23 % iA/g
same,uptake in adrenals,[2]; mean,0.0618 % iD/g
same,uptake in blood,[2]; mean,0.0013 % iD/g
same,uptake in intestine,[2]; mean,0.3354 % iD/g
same,uptake in kidney,[2]; mean,0.9488 % iD/g
same,uptake in liver,[2]; mean,0.2519 % iD/g
same,uptake in lung,[2]; mean,0.0438 % iD/g
same,uptake in pancreas,[2]; mean,0.0165 % iD/g
same,uptake in parotid gl.,[2]; mean,0.0554 % iD/g
same,uptake in spleen,[2]; mean,0.3891 % iD/g
same,uptake in stomach,[2]; mean,0.0846 % iD/g
same,uptake in tumor,[2]; mean,7.5897 % iD/g
same,uptake in bone,"[2]; mean, listed as [^177Lu]2C013",0.037 % iD/g
same,uptake in heart,"[2]; mean, listed as [^177Lu]2C013",0.019 % iD/g
same,uptake in muscle,"[2]; mean, listed as [^177Lu]2C013",0.004 % iD/g
same,uptake in submand. gl.,"[2]; mean, listed as [^177Lu]2C013",0.036 % iD/g
same,uptake in bone,[2]; [3],0.0370 % iD/g
same,uptake in heart,[2]; [3],0.0190 % iD/g
same,uptake in muscle,[2]; [3],0.0040 % iD/g
same,uptake in submand. gl.,[2]; [3],0.0360 % iD/g
same,tumor-to-organ ratio adrenals,"[2]; n = 4, mean",131.27
same,tumor-to-organ ratio blood,"[2]; n = 4, mean",6891.48
same,tumor-to-organ ratio bone,"[2]; n = 4, mean",208.29
same,tumor-to-organ ratio heart,"[2]; n = 4, mean",403.61
same,tumor-to-organ ratio intestine,"[2]; n = 4, mean",60.29
same,tumor-to-organ ratio kidney,"[2]; n = 4, mean",9.04
same,tumor-to-organ ratio liver,"[2]; n = 4, mean",31.82
same,tumor-to-organ ratio lung,"[2]; n = 4, mean",189.80
same,tumor-to-organ ratio muscle,"[2]; n = 4, mean",2075.70
same,tumor-to-organ ratio pancreas,"[2]; n = 4, mean",492.10
same,tumor-to-organ ratio parotid gl.,"[2]; n = 4, mean",140.11
same,tumor-to-organ ratio spleen,"[2]; n = 4, mean",21.03
same,tumor-to-organ ratio stomach,"[2]; n = 4, mean",145.92
same,tumor-to-organ ratio submand. gl.,"[2]; n = 4, mean",211.04
same,Activity accumulation adrenals,"[2]; repeated dataset, n = 5, mean",0.1327 % ID/g
same,Activity accumulation blood,"[2]; repeated dataset, n = 5, mean",0.0016 % ID/g
same,Activity accumulation bone,"[2]; repeated dataset, n = 5, mean",0.1331 % ID/g
same,Activity accumulation heart,"[2]; repeated dataset, n = 5, mean",0.023 % ID/g
same,Activity accumulation intestine,"[2]; repeated dataset, n = 5, mean",0.0615 % ID/g
same,Activity accumulation kidney,"[2]; repeated dataset, n = 5, mean",1.0833 % ID/g
same,Activity accumulation liver,"[2]; repeated dataset, n = 5, mean",0.3202 % ID/g
same,Activity accumulation lung,"[2]; repeated dataset, n = 5, mean",0.0548 % ID/g
same,Activity accumulation muscle,"[2]; repeated dataset, n = 5, mean",0.0056 % ID/g
same,Activity accumulation pancreas,"[2]; repeated dataset, n = 5, mean",0.0173 % ID/g
same,Activity accumulation parotid gl.,"[2]; repeated dataset, n = 5, mean",0.063 % ID/g
same,Activity accumulation spleen,"[2]; repeated dataset, n = 5, mean",0.4246 % ID/g
same,Activity accumulation stomach,"[2]; repeated dataset, n = 5, mean",0.0349 % ID/g
same,Activity accumulation submand. gl.,"[2]; repeated dataset, n = 5, mean",0.038 % ID/g
same,Activity accumulation tumor,"[2]; repeated dataset, n = 5, mean",10.1512 % ID/g
same,tumor-to-organ ratio adrenals,"[2]; repeated dataset, n = 5, mean",78.58
same,tumor-to-organ ratio blood,"[2]; repeated dataset, n = 5, mean",6950.64
same,tumor-to-organ ratio bone,"[2]; repeated dataset, n = 5, mean",73.24
same,tumor-to-organ ratio heart,"[2]; repeated dataset, n = 5, mean",475.05
same,tumor-to-organ ratio intestine,"[2]; repeated dataset, n = 5, mean",263.86
same,tumor-to-organ ratio kidney,"[2]; repeated dataset, n = 5, mean",9.48
same,tumor-to-organ ratio liver,"[2]; repeated dataset, n = 5, mean",31.51
same,tumor-to-organ ratio lung,"[2]; repeated dataset, n = 5, mean",184.32
same,tumor-to-organ ratio muscle,"[2]; repeated dataset, n = 5, mean",1867.35
same,tumor-to-organ ratio pancreas,"[2]; repeated dataset, n = 5, mean",587.5
same,tumor-to-organ ratio parotid gl.,"[2]; repeated dataset, n = 5, mean",172.33
same,tumor-to-organ ratio spleen,"[2]; repeated dataset, n = 5, mean",25.43
same,tumor-to-organ ratio stomach,"[2]; repeated dataset, n = 5, mean",286.18
same,tumor-to-organ ratio submand. gl.,"[2]; repeated dataset, n = 5, mean",270.92
same,T/K-ratio,"[2]; tumor/kidney, Table 1",9.04 ± 3.09
same,IC50,PSMA,4.44 nM
